Data on 13 molecules can be found in patent publication US9334286B2, “Pharmacologically active compounds” (Cancer Research Technology Limited, priority 2012, dated 2016).

The structures appear in SMILES notation. pIC50: −log10 of the molar value.

The target of the assay is full length MPS1 (Homo sapiens (Human), UniProt P33981). Nature of the assay: Measurement of inhibition of MPS1 kinase (Caliper EZ reader, fluorescent labelled peptide H236). The format is biochemical. The conditions noted are these: full length MPS1 12.5 nM or 3 nM, peptide H236 5 μM, ATP 10 μM, 60 min at room temperature. Here is the method: The reaction was carried out for 60 min at room temperature and stopped by the addition of buffer (10 μl) containing 20 mM EDTA, 0.05% (v/v) Brij-35, in 0.1M HEPES-buffered saline (Free acid, Sigma, UK). The plate was read on a Caliper EZ reader II (Caliper Life Sciences).
Sequence of full length MPS1 (P33981 whole entry): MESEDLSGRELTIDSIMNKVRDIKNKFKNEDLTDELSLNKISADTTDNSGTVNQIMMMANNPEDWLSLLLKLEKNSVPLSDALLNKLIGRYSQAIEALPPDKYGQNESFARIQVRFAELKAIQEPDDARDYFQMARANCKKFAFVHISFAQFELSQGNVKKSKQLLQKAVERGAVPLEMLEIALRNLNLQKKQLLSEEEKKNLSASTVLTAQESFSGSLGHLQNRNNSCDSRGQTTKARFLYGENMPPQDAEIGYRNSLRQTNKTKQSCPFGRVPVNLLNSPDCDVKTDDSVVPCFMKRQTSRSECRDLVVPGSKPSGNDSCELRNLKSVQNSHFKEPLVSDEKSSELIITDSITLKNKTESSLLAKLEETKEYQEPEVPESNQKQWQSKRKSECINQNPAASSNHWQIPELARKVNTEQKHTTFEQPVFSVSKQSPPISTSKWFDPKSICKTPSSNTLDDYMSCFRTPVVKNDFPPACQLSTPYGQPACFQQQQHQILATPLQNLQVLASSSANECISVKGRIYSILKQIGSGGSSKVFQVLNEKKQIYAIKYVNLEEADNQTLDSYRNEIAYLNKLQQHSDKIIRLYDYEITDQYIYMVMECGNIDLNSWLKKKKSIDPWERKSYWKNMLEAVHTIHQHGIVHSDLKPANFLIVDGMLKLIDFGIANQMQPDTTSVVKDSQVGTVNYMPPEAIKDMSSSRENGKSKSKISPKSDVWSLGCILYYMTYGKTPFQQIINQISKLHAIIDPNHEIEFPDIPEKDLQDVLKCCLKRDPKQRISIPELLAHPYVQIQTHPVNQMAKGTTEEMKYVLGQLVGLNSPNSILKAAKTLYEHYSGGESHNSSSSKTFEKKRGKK
The reader provides a Software package (‘Reviewer’) which converts the peak heights into % conversion by measuring both product and substrate peak and also allows selection of control well which represent 0% and 100% inhibition respectively. The % inhibition of the compounds is calculated relative to the means of selected control wells. IC50s are determined by testing the compounds at a range of concentrations from 0.25 nM-100 μM. The % inhibitions at each concentration are then fitted to a 4 parameter logistic fit: y=(a+((b−a)/(1+((c/x^d)))) where a=asym min, b=asym max, c=IC50 and d=hill coefficient
`COc1cc(C(=O)N(C)C)ccc1Nc1cc2cc(-c3cnn(CC(C)(C)O)c3)ccc2cn1` [Example 60, 4-((6-(1-(2-Hydroxy-2-methylpropyl)-1H-pyrazol-4-yl)isoquinolin-3-yl)amino)-3-methoxy-N,N-dimethylbenzamide] had a pIC50 of 8.70.

As to `COCCn1c(-c2ccc(Nc3cc4cc(-c5cnn(CC(C)(C)O)c5)ccc4cn3)c(OC)c2)cnc1C` [Example 35, 1-(4-(3-((2-Methoxy-4-(1-(2-methoxyethyl)-2-methyl-1H-imidazol-5-yl)phenyl)amino)-isoquinolin-6-yl)-1H-pyrazol-1-yl)-2-methylpropan-2-ol], the pIC50 is 8.52. The pIC50 values of the last two molecules are within 0.2 log units of each other.

As to `COc1cc(C(=O)N2CCN(C)CC2)ccc1Nc1cc2cc(-c3cnn(CC(C)(C)O)c3)ccc2cn1` [Example 66], the pIC50 was 8.70.

As for `COc1cc(-c2cnc(C)n2C)ccc1Nc1cc2cc(-c3cnn(CC(F)F)c3)ccc2cn1` [Example 3, 6-(1-(2,2-Difluoroethyl)-1H-pyrazol-4-yl)-N-(4-(1,2-dimethyl-1H-imidazol-5-yl)-2-methoxyphenyl)isoquinolin-3-amine], the pIC50 is 8.70.

Turning to `COc1cc(-c2cnc(C)n2C)ccc1Nc1cc2nc(-c3cnn(CC(C)(C)O)c3)ccc2cn1` [Example 102, 1-(4-(7-(4-(1,2-Dimethyl-1H-imidazol-5-yl)-2-methoxyphenylamino)-1,6-naphthyridin-2-yl)-1H-pyrazol-1-yl)-2-methylpropan-2-ol], the pIC50 is 8.70.

Consider `CCOc1cc(-c2nncn2C)ccc1Nc1cc2nc(-c3cnn(CC(C)(C)O)c3)ccc2cn1` [Example 103, 1-(4-(7-(2-Ethoxy-4-(4-methyl-4H-1,2,4-triazol-3-yl)phenylamino)-1,6-naphthyridin-2-yl)-1H-pyrazol-1-yl)-2-methylpropan-2-ol], for which the pIC50 was 9.00.

Molecule `COc1cc(-c2cnc(C)n2C)ccc1Nc1cc2cc(-c3cnco3)ccc2cn1` [Example 6, N-(4-(1,2-dimethyl-1H-imidazol-5-yl)-2-methoxyphenyl)-6-(oxazol-5-yl)isoquinolin-3-amine] gave a pIC50 of 8.40.

`COc1cc(-c2cnc(C)n2C)ccc1Nc1cc2cc(-c3cncs3)ccc2cn1` [Example 9, N-(4-(1,2-dimethyl-1H-imidazol-5-yl)-2-methoxyphenyl)-6-(thiazol-5-yl)isoquinolin-3-amine]: the pIC50 is 8.40.

`COc1cc(-c2nnc3n2CCN(C(=O)OC(C)(C)C)C3)ccc1Nc1cc2cc(-c3cnn(CC(C)(C)O)c3)ccc2cn1` [Example 55, tert-Butyl 3-(4-(6-(1-(2-hydroxy-2-methylpropyl)-1H-pyrazol-4-yl)isoquinolin-3-ylamino)-3-methoxyphenyl)-5,6-dihydro-[1,2,4]triazolo[4,3-a]pyrazine-7(8H)-carboxylate] had a pIC50 of 8.52.

In the case of `CC(C)(O)Cn1cc(-c2ccc3cnc(Nc4ccc(N5CCOCC5)cc4Cl)cc3c2)cn1` [Example 45, 1-(4-(3-(2-Chloro-4-morpholinophenylamino)isoquinolin-6-yl)-1H-pyrazol-1-yl)-2-methylpropan-2-ol], the negative-log IC50 (pIC50) was 7.35.

Turning to `COc1cc(C(=O)N2CC(OC)C2)ccc1Nc1cc2cc(-c3cnn(CC(C)(C)O)n3)ccc2cn1` [Example 97, (4-(6-(2-(2-Hydroxy-2-methylpropyl)-2H-1,2,3-triazol-4-yl)isoquinolin-3-ylamino)-3-methoxyphenyl)(3-methoxyazetidin-1-yl)methanone], the pIC50 was 8.05.

In turn, `COc1cc(-c2cnc(C)n2C)ccc1Nc1cc2cc(-c3ccc(C)nc3)ccc2cn1` [Example 11, N-(4-(1,2-dimethyl-1H-imidazol-5-yl)-2-methoxyphenyl)-6-(6-methylpyridin-3-yl)isoquinolin-3-amine] gave a pIC50 of 8.70.

In turn, `COc1cc(C(=O)N2CCC(C#N)CC2)ccc1Nc1cc2cc(-c3cnn(CC(C)(C)O)c3)ccc2cn1` [Example 94, 1-(4-(6-(1-(2-Hydroxy-2-methylpropyl)-1H-pyrazol-4-yl)isoquinolin-3-ylamino)-3-methoxybenzoyl)piperidine-4-carbonitrile] gave a pIC50 of 8.70.
